21 compounds from patent US9056875B2, “Substituted pyrazolo[3′,4′:4,5]thieno[2,3-C]pyridazin-3-amine analogs as positive allosteric modulators of the muscarinic acetylcholine receptor M4” (Vanderbilt University, priority 2012, dated 2015) can be followed below.

The assay deals with T1, mAChR rM4 (Rattus norvegicus, UniProt P08485).
T1 construct: expressed in transfected cells
T1 sequence (P08485 1-478): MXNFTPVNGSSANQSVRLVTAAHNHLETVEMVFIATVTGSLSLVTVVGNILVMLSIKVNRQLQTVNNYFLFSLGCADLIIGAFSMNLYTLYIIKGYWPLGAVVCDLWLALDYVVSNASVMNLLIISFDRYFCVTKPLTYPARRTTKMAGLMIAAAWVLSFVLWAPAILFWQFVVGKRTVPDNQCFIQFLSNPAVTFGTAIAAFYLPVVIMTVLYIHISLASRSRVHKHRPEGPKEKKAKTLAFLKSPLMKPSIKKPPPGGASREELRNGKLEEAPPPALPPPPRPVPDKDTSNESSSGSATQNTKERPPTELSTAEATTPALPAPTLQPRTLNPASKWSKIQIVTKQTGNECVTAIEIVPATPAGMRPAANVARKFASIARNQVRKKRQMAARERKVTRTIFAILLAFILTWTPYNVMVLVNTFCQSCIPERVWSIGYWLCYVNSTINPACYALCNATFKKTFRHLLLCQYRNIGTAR
Briefly: mAChR rM4 cell-based functional assay (calcium mobilization, potentiation of EC20 acetylcholine response). The following applies: for Emax at 30 µM: %ACh maximum at 30 μM; for EC50: rM4-transfected CHO-K1 cells, positive allosteric modulation of EC20 ACh response. The text has this: Chinese hamster ovary (CHO-K1) cells stably expressing rat (r)M1 were purchased from the American Type Culture Collection and cultured according to their indicated protocol. CHO cells stably expressing human (h)M2, hM3, and hM5 were described previously (Levey A I, et al., (1991) J Neurosci 11:3218-3226.); hM1 and hM4 cDNAs were purchased from Missouri S&T cDNA Resource; rM4 cDNA was provided by T. I. Bonner (National Institutes of Health, Bethesda, Md.). rM2 and rM3 were cloned from a rat brain cDNA library and sequence verified. hM1, rM2, rM3, hM4, and rM4 cDNAs were used to stably transfect CHO-K1 cells purchased from the American Type Culture Collection using Lipofectamine® 2000. To make stable rM2, hM2, rM3, hM4, and rM4 cell lines for use in calcium mobilization assays, these cells also were stably transfected with a chimeric G-protein (Gqi5) (provided by B. R. Conklin, University of California, San Francisco) using Lipofectamine® 2000. rM1, hM1, rM3, hM3, rM5, and hM5 cells were grown in Ham's F-12 medium containing 10% heat-inactivated fetal bovine serum (FBS), 20 mM HEPES, and 50 μg/mL G418 sulfate. rM2-Gqi5, hM2-Gqi5, and hM4-Gqi5 cells were grown in the same medium also containing 500 μg/mL hygromycin B. Stable rM4-Gqi5 cells were grown in DMEM containing 10% heat-inactivated FBS, 20 mM HEPES, 400 μg/mL G418 sulfate, and 500 μg/mL Hygromycin B.
For high throughput measurement of agonist-evoked increases in intracellular calcium, CHO-K1 cells stably expressing the target muscarinic receptor were plated in growth medium lacking G418 and hygromycin at 15,000 cells/20 μL/well in Greiner 384-well black-walled, tissue culture (TC)-treated, clear-bottom plates (VWR). Cells were incubated overnight at 37° C. and 5% CO2. The next day, cells were washed using an ELX 405 (BioTek) with four washes (80 μL) of assay buffer then aspirated to 20 μL. Next, 20 μL of 16 μM Fluo-4/acetoxymethyl ester (Invitrogen, Carlsbad, Calif.) prepared as a 2.3 mM stock in DMSO and mixed in a 1:1 ratio with 10% (w/v) Pluronic F-127 and diluted in assay buffer was added to the wells and the cell plates were incubated for […] at 37° C. and 5% CO2. Dye was removed by washing with the ELX 405 (four 80 μL washes of assay buffer) then aspirated to 20 μL. Compound master plates were formatted in an 11 point CRC format (1:3 dilutions) in 100% DMSO with a starting concentration of 10 mM using the BRAVO liquid handler (Agilent). Test compound CRCs were then transferred to daughter plates (240 nL) using the Echo acoustic plate reformatter (Labcyte, Sunnyvale, Calif.) and then diluted into assay buffer (40 μL) to a 2× stock using a Thermo Fisher Combi (Thermo Fisher Scientific, Waltham, Mass.).
Calcium flux was measured using the Functional Drug Screening System (FDSS) 6000 (Hamamatsu Corporation, Tokyo, Japan) as an increase in the fluorescent static ratio. Compounds were applied to cells (20 μL, 2×) using the automated system of the FDSS 6000 at 4 s into the 300 s protocol and the data were collected at 1 Hz. At 144 s into the 300 s protocol, 10 μL of an EC20 concentration of the muscarinic receptor agonist acetylcholine was added (5×), followed by the addition of 12 μL an EC80 concentration of acetylcholine at the 230 s time point (5×). Agonist activity was analyzed as a concentration-dependent increase in calcium mobilization upon compound addition. Positive allosteric modulator activity was analyzed as a concentration-dependent increase in the EC20 acetylcholine response. Antagonist activity was analyzed as a concentration-dependent decrease in the EC80 acetylcholine response. Concentration-response curves were generated using a four-parameter logistical equation in XLfit™ curve fitting software (IDBS, Bridgewater, N.J.) for Excel (Microsoft, Redmond, Wash.) or Prism (GraphPad Software, Inc., San Diego, Calif.). […]

Like-named read-outs stand apart in the source and are kept apart here.

As a reminder, the Emax is the size of the effect at its maximum, as opposed to the concentration needed. For the compound `COc1ccc(CNc2nn(C)c3c2sc2nnc(C)c(C)c23)cc1` [Compound 1, N-(4-methoxybenzyl)-1,7,8-trimethyl-1H-pyrazolo[3′,4′:4,5]thieno[2,3-c]pyridazin-3-amine], the Emax at 30 µM was 55%. Besides, under “read-out: EC50”, the EC50 was determined as 48 nM.

In the case of `Cc1nnc2sc3c(NCc4ccc(S(C)(=O)=O)cc4)nn(C)c3c2c1C` [Compound 2, 1,7,8-trimethyl-N-(4-(methylsulfonyl)benzyl)-1H-pyrazolo[3′,4′:4,5]thieno[2,3-c]pyridazin-3-amine], the Emax at 30 µM was determined as 57%. Where the note is “read-out: EC50”, the EC50 is 130 nM.

With `Cc1nnc2sc3c(NCC4CC4)nn(C)c3c2c1C` [Compound 3, N-(cyclopropylmethyl)-1,7,8-trimethyl-1H-pyrazolo[3′,4′:4,5]thieno[2,3-c]pyridazin-3-amine], the Emax at 30 µM worked out at 46%. The EC50 (read-out: EC50) worked out at 340 nM.

Regarding `Cc1nnc2sc3c(NCc4ccco4)nn(C)c3c2c1C` [Compound 4, N-(furan-2-ylmethyl)-1,7,8-trimethyl-1H-pyrazolo[3′,4′:4,5]thieno[2,3-c]pyridazin-3-amine], the Emax at 30 µM is 50%. For the setting “read-out: EC50”, the EC50 was found to be 180 nM.

For `Cc1nnc2sc3c(NCc4ccc(F)c(S(C)(=O)=O)c4)nn(C)c3c2c1C` [Compound 5, N-(4-fluoro-3-(methylsulfonyl)benzyl)-1,7,8-trimethyl-1H-pyrazolo[3′,4′:4,5]thieno[2,3-c]pyridazin-3-amine], the Emax at 30 µM was found to be 54%. Besides, where the note is “read-out: pEC50 (converted)”, the EC50 was 14.1 nM.

As for `Cc1nnc2sc3c(NC4CCSC4)nn(C)c3c2c1C` (stereo not drawn) [Compound 6, 1,7,8-trimethyl-N-(tetrahydrothiophen-3-yl)-1H-pyrazolo[3′,4′:4,5]thieno[2,3-c]pyridazin-3-amine], the Emax at 30 µM turned out to be 56%. Further, the EC50 (read-out: EC50) was 97 nM.

Regarding `Cc1nnc2sc3c(NCc4ccoc4)nn(C)c3c2c1C` [Compound 7, N-(furan-3-ylmethyl)-1,7,8-trimethyl-1H-pyrazolo[3′,4′:4,5]thieno[2,3-c]pyridazin-3-amine], the maximum response (Emax) at 30 µM is 60%. Also, for the setting “read-out: pEC50 (converted)”, the EC50 is 38.9 nM.

On to `Cc1nnc2sc3c(NC4CCOC4)nn(C)c3c2c1C` (stereo not drawn) [Compound 8, 1,7,8-trimethyl-N-(tetrahydrofuran-3-yl)-1H-pyrazolo[3′,4′:4,5]thieno[2,3-c]pyridazin-3-amine], for which the Emax at 30 µM amounted to 55%. Besides, the EC50 (read-out: EC50) is 400 nM.

In the case of `Cc1nnc2sc3c(NC4CN(C(=O)OC(C)(C)C)C4)nn(C)c3c2c1C` [Compound 9, tert-butyl 3-((1,7,8-trimethyl-1H-pyrazolo[3′,4′:4,5]thieno[2,3-c]pyridazin-3-yl)amino)azetidine-1-carboxylate], the Emax at 30 µM amounted to 58%. The EC50 (read-out: pEC50 (converted)) is 25.1 nM.

`Cc1nnc2sc3c(NCc4cccs4)nn(C)c3c2c1C` [Compound 10, 1,7,8-trimethyl-N-(thiophen-2-ylmethyl)-1H-pyrazolo[3′,4′:4,5]thieno[2,3-c]pyridazin-3-amine]: the Emax at 30 µM was determined as 53%. In addition, for the setting “read-out: pEC50 (converted)”, the EC50 was 30.9 nM.

Turning to `Cc1ncsc1CNc1nn(C)c2c1sc1nnc(C)c(C)c12` [Compound 11, 1,7,8-trimethyl-N-((4-methylthiazol-5-yl)methyl)-1H-pyrazolo[3′,4′:4,5]thieno[2,3-c]pyridazin-3-amine], the Emax at 30 µM came out at 56%. For the same compound, the EC50 (read-out: EC50) was determined as 55 nM.

Consider `Cc1cc(CNc2nn(C)c3c2sc2nnc(C)c(C)c23)no1` [Compound 12, 1,7,8-trimethyl-N-((5-methylisoxazol-3-yl)methyl)-1H-pyrazolo[3′,4′:4,5]thieno[2,3-c]pyridazin-3-amine], for which the Emax at 30 µM was 55%. The EC50 (read-out: EC50) worked out at 500 nM.

Consider `Cc1nnc2sc3c(NCc4ccc5c(c4)OCCO5)nn(C)c3c2c1C` [Compound 13, N-((2,3-dihydrobenzo[b][1,4]dioxin-6-yl)methyl)-1,7,8-trimethyl-1H-pyrazolo[3′,4′:4,5]thieno[2,3-c]pyridazin-3-amine], for which the Emax at 30 µM worked out at 55%. Also, for the setting “read-out: pEC50 (converted)”, the EC50 was 12.9 nM.

As for `CC(=O)N1CC(Nc2nn(C)c3c2sc2nnc(C)c(C)c23)C1` [Compound 14, 1-(3-((1,7,8-trimethyl-1H-pyrazolo[3′,4′:4,5]thieno[2,3-c]pyridazin-3-yl)amino)azetidin-1-yl)ethanone], the Emax at 30 µM came out at 69%. Under “read-out: EC50”, the EC50 was determined as 170 nM.

On to `Cc1nnc2sc3c(NC4CN(S(C)(=O)=O)C4)nn(C)c3c2c1C` [Compound 15, 1,7,8-trimethyl-N-(1-(methylsulfonyl)azetidin-3-yl)-1H-pyrazolo[3′,4′:4,5]thieno[2,3-c]pyridazin-3-amine], for which the Emax at 30 µM turned out to be 64%. The EC50 (read-out: EC50) is 63 nM.

Take `Cc1nnc2sc3c(NC4CNC4)nn(C)c3c2c1C` [Compound 16, N-(azetidin-3-yl)-1,7,8-trimethyl-1H-pyrazolo[3′,4′:4,5]thieno[2,3-c]pyridazin-3-amine]: the Emax at 30 µM is 51%. Besides, for the setting “read-out: EC50”, the EC50 came to 1400 nM.

As to `Cc1nnc2sc3c(NC4CCN(C(=O)OC(C)(C)C)CC4)nn(C)c3c2c1C` [Compound 17, tert-butyl 4-((1,7,8-trimethyl-1H-pyrazolo[3′,4′:4,5]thieno[2,3-c]pyridazin-3-yl)amino)piperidine-1-carboxylate], the Emax at 30 µM came out at 47%. The EC50 (read-out: EC50) was 210 nM.

Take `Cc1nnc2sc3c(NC4CCNCC4)nn(C)c3c2c1C` [Compound 18, 1,7,8-trimethyl-N-(piperidin-4-yl)-1H-pyrazolo[3′,4′:4,5]thieno[2,3-c]pyridazin-3-amine]: the Emax at 30 µM came out at 31%. For the same compound, the EC50 (read-out: EC50) is 5200 nM.

Regarding `Cc1nnc2sc3c(NC4CCN(S(C)(=O)=O)CC4)nn(C)c3c2c1C` [Compound 19, 1,7,8-trimethyl-N-(1-(methylsulfonyl)piperidin-4-yl)-1H-pyrazolo[3′,4′:4,5]thieno[2,3-c]pyridazin-3-amine], the Emax at 30 µM was 58%. The EC50 (read-out: EC50) is 1100 nM.

`CC(=O)N1CCC(Nc2nn(C)c3c2sc2nnc(C)c(C)c23)CC1` [Compound 20, 1-(4-((1,7,8-trimethyl-1H-pyrazolo[3′,4′:4,5]thieno[2,3-c]pyridazin-3-yl)amino)piperidin-1-yl)ethanone]: the Emax at 30 µM came out at 51%. Moreover, the EC50 (read-out: EC50) stood at 1800 nM.

As for `Cc1nnc2sc3c(NCC4CCN(C(=O)OC(C)(C)C)CC4)nn(C)c3c2c1C` [Compound 21, tert-butyl 4-(((1,7,8-trimethyl-1H-pyrazolo[3′,4′:4,5]thieno[2,3-c]pyridazin-3-yl)amino)methyl)piperidine-1-carboxylate], the Emax at 30 µM is 42%. Also, the EC50 (read-out: EC50) was found to be 710 nM.
